Counter-ions that a name gives are not always drawn.
Target: T1, human muscarinic receptors M3 (Homo sapiens, UniProt P20309)
T1 construct: expressed in transfected cells; host or cells: CHO-K1 (chinese hamster ovary-K1), stably transfected; membrane preparations
Test: biochemical
Type: binding
Settings: for inhibition at 0.1 µM: read-out: % INHIBITION concentration: 1.00E−07 M; for inhibition at 0.01 µM: read-out: % INHIBITION concentration: 1.00E−08 M

T1 sequence (P20309 whole entry): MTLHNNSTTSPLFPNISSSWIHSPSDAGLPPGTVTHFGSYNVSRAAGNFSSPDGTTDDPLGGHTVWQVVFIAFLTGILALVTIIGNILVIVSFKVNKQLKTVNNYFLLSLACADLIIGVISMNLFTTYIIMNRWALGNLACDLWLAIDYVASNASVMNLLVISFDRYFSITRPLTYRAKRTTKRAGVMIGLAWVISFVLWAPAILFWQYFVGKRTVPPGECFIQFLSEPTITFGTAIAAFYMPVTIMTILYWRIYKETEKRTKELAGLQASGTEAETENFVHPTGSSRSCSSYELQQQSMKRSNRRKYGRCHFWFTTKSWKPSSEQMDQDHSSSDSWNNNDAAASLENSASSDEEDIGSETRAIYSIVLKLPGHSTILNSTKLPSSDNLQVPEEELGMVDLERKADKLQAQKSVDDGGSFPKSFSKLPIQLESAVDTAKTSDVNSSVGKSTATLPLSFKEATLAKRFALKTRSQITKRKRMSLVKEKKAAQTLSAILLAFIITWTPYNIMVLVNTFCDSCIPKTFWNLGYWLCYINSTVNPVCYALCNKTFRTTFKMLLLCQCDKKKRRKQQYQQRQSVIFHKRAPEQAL

Q: What does the source list for C=CCC(O)(C(=O)O[C@H]1C[N+]2(CCCOc3ccccc3)CCC1CC2)c1cccs1 (stereo partly drawn) [Example 13, (3R)-3-(2-Hydroxy-2-thien-2-ylpent-4-enoyloxy)-1-(3-phenoxypropyl)-1-azoniabicyclo[2.2.2]octane bromide]?
A: inhibition at 0.1 µM: 76%; inhibition at 0.01 µM: 36%

Q: What does the source list for CCCCCC(O)(C(=O)O[C@H]1C[N+]2(CCCOc3ccccc3)CCC1CC2)c1cccs1 (stereo partly drawn) [Example 16, (3R)-3-(2-Hydroxy-2-thien-2-ylheptanoyloxy)-1-(3-phenoxypropyl)-1-azoniabicyclo[2.2.2]octane trifluoroacetate]?
A: inhibition at 0.1 µM: 74.2%; inhibition at 0.01 µM: 36.3%

Q: Which inhibition at 0.1 µM does the source give for O=C(O[C@H]1C[N+]2(CCCOc3ccccc3)CCC1CC2)[C@](O)(c1cccs1)C1CCCC1 [Example 22, (3R)-3-[(2S)-2-Cyclopentyl-2-hydroxy-2-thien-2-ylacetoxy]-1-(3-phenoxypropyl)-1-azoniabicyclo[2.2.2]octane bromide] here?
A: Its inhibition at 0.1 µM is 81.5%.

Q: What about the inhibition at 0.01 µM of the same compound?
A: Its inhibition at 0.01 µM is 72%.

Q: For O=C(O[C@H]1C[N+]2(CCCc3cccs3)CCC1CC2)[C@](O)(c1cccs1)C1CCCC1 [Example 23, (3R)-3-[(2S)-2-Cyclopentyl-2-hydroxy-2-thien-2-yl-acetoxy]-1-(3-thien-2-ylpropyl)-1-azoniabicyclo[2.2.2]octane trifluoroacetate], which inhibition at 0.1 µM is on record?
A: The inhibition at 0.1 µM was 75.6%.

Q: What about the inhibition at 0.01 µM of the same compound?
A: The inhibition at 0.01 µM was 63.3%.

Q: Which inhibition at 0.1 µM does the source give for O=C(O[C@H]1C[N+]2(CCOc3ccccc3)CCC1CC2)[C@](O)(c1cccs1)C1CCCC1 [Example 24, (3R)-3-[(2S)-2-Cyclopentyl-2-hydroxy-2-thien-2-ylacetoxy]-1-(2-phenoxyethyl)-1-azoniabicyclo[2.2.2]octane bromide] here?
A: The inhibition at 0.1 µM was 78%.

Q: What about the inhibition at 0.01 µM of the same compound?
A: Its inhibition at 0.01 µM is 56.6%.

Q: O=C(O[C@H]1C[N+]2(CCc3ccccc3)CCC1CC2)[C@](O)(c1cccs1)C1CCCC1 [Example 25, (3R)-3-[(2S)-2-Cyclopentyl-2-hydroxy-2-thien-2-ylacetoxy]-1-phenethyl-1-azoniabicyclo[2.2.2]octane trifluoroacetate] was tested. Which inhibition at 0.1 µM did it give?
A: Its inhibition at 0.1 µM is 76.1%.

Q: And the inhibition at 0.01 µM?
A: The inhibition at 0.01 µM was 62.6%.

Q: With O=C(O[C@H]1C[N+]2(CCCc3ccccc3)CCC1CC2)[C@](O)(c1cccs1)C1CCCC1 [Example 26, (3R)-3-[(2S)-2-Cyclopentyl-2-hydroxy-2-thien-2-ylacetoxy]-1-(3-phenylpropyl)-1-azoniabicyclo[2.2.2]octane trifluoroacetate] as the compound, how does the inhibition at 0.1 µM read?
A: Its inhibition at 0.1 µM is 75.6%.

Q: What about the inhibition at 0.01 µM of the same compound?
A: The inhibition at 0.01 µM was 63.8%.

Q: O=C(O[C@H]1C[N+]2(CCCOc3ccc(F)cc3)CCC1CC2)[C@](O)(c1cccs1)C1CCCC1 [Example 28, (3R)-3-[(2S)-2-Cyclopentyl-2-hydroxy-2-thien-2-ylacetoxy]-1-[3-(4-fluorophenoxy)propyl]-1-azoniabicyclo[2.2.2]octane trifluoroacetate] was tested. Which inhibition at 0.1 µM did it give?
A: Its inhibition at 0.1 µM is 78.3%.

Q: And the inhibition at 0.01 µM?
A: Its inhibition at 0.01 µM is 60.6%.

Q: With O=C(O[C@H]1C[N+]2(CCCOc3cccc(O)c3)CCC1CC2)[C@](O)(c1cccs1)C1CCCC1 [Example 31, (3R)-3-[(2S)-2-Cyclopentyl-2-hydroxy-2-thien-2-ylacetoxy]-1-[3-(3-hydroxyphenoxy)propyl]-1-azoniabicyclo[2.2.2]octane trifluoroacetate] as the compound, how does the inhibition at 0.1 µM read?
A: Its inhibition at 0.1 µM is 74.3%.

Q: What about the inhibition at 0.01 µM of the same compound?
A: The inhibition at 0.01 µM was 54.3%.

Q: Which inhibition at 0.1 µM does the source give for Cc1ccccc1OCCC[N+]12CCC(CC1)[C@@H](OC(=O)[C@](O)(c1cccs1)C1CCCC1)C2 [Example 33, (3R)-3-[(2S)-2-Cyclopentyl-2-hydroxy-2-thien-2-ylacetoxy]-1-(3-o-tolyloxypropyl)1-azoniabicyclo[2.2.2]octane trifluoroacetate] here?
A: Its inhibition at 0.1 µM is 72.8%.

Q: And the inhibition at 0.01 µM?
A: Its inhibition at 0.01 µM is 46.7%.

Q: Which inhibition at 0.1 µM does the source give for N#Cc1cccc(OCCC[N+]23CCC(CC2)[C@@H](OC(=O)[C@](O)(c2cccs2)C2CCCC2)C3)c1 [Example 34, 1-[3-(3-Cyanophenoxy)propyl]-(3R)-3-[(2S)-2-cyclopentyl-2-hydroxy-2-thien-2-ylacetoxy]-1-azoniabicyclo[2.2.2]octane trifluoroacetate] here?
A: The inhibition at 0.1 µM was 85.3%.

Q: And the inhibition at 0.01 µM?
A: The inhibition at 0.01 µM was 68.3%.

Q: Which inhibition at 0.1 µM does the source give for CN(CCC[N+]12CCC(CC1)[C@@H](OC(=O)[C@](O)(c1cccs1)C1CCCC1)C2)c1ccccc1 [Example 36, (3R)-3-[(2S)-2-Cyclopentyl-2-hydroxy-2-thien-2-ylacetoxy]-1-[3-(methylphenylamino)propyl]-1-azoniabicyclo[2.2.2]octane trifluoroacetate] here?
A: Its inhibition at 0.1 µM is 84.2%.

Q: And the inhibition at 0.01 µM?
A: Its inhibition at 0.01 µM is 42%.

Q: How did the inhibition at 0.1 µM turn out when O=C(O[C@H]1C[N+]2(CCCSc3ccccc3)CCC1CC2)[C@](O)(c1cccs1)C1CCCC1 [Example 37, (3R)-3-[(2S)-2-Cyclopentyl-2-hydroxy-2-thien-2-ylacetoxy]-1-(3-phenylsulfanylpropyl)-1-azoniabicyclo[2.2.2]octane trifluoroacetate] was run?
A: Its inhibition at 0.1 µM is 88.1%.

Q: And the inhibition at 0.01 µM?
A: Its inhibition at 0.01 µM is 72.6%.

Q: O=C(CCC[N+]12CCC(CC1)[C@@H](OC(=O)[C@](O)(c1cccs1)C1CCCC1)C2)c1ccccc1 [Example 38, (3R)-3-[(2S)-2-Cyclopentyl-2-hydroxy-2-thien-2-ylacetoxy]-1-(4-oxo-4-phenylbutyl)-1-azoniabicyclo[2.2.2]octane trifluoroacetate] was tested. Which inhibition at 0.1 µM did it give?
A: Its inhibition at 0.1 µM is 86.3%.

Q: And the inhibition at 0.01 µM?
A: The inhibition at 0.01 µM was 57.7%.

Q: Which inhibition at 0.1 µM does the source give for O=C(O[C@H]1C[N+]2(CCCOc3ccccc3Cl)CCC1CC2)[C@](O)(c1cccs1)C1CCCC1 [Example 40, 1-[3-(2-Chlorophenoxy)-propyl]-(3R)-3-[(2S)-2-cyclopentyl-2-hydroxy-2-thien-2-ylacetoxy]-1-azoniabicyclo[2.2.2]octane trifluoroacetate] here?
A: The inhibition at 0.1 µM was 86.9%.

Q: What about the inhibition at 0.01 µM of the same compound?
A: Its inhibition at 0.01 µM is 72.7%.

Q: How did the inhibition at 0.1 µM turn out when O=C(O[C@H]1C[N+]2(CCCOc3ccc(F)cc3F)CCC1CC2)[C@](O)(c1cccs1)C1CCCC1 [Example 43, (3R)-3-[(2S)-2-Cyclopentyl-2-hydroxy-2-thien-2-ylacetoxy]-1-[3-(2,4-difluorophenoxy)propyl]-1-azoniabicyclo[2.2.2]octane trifluoroacetate] was run?
A: Its inhibition at 0.1 µM is 83.4%.

Q: And the inhibition at 0.01 µM?
A: Its inhibition at 0.01 µM is 58.7%.

Q: For COc1ccc(OCCC[N+]23CCC(CC2)[C@@H](OC(=O)[C@](O)(c2cccs2)C2CCCC2)C3)cc1 [Example 44, (3R)-3-[(2S)-2-Cyclopentyl-2-hydroxy-2-thien-2-ylacetoxy]-1-[3-(4-methoxyphenoxy)propyl]-1-azoniabicyclo[2.2.2]octane trifluoroacetate], which inhibition at 0.1 µM is on record?
A: Its inhibition at 0.1 µM is 84.6%.

Q: And the inhibition at 0.01 µM?
A: The inhibition at 0.01 µM was 44.6%.

Q: For O=C(O[C@H]1C[N+]2(CCCOc3ccc4c(c3)OCO4)CCC1CC2)[C@](O)(c1cccs1)C1CCCC1 [Example 46, 1-[3-(Benzo[1,3]dioxol-5-yloxy)propyl]-(3R)-3-[(2S)-2-cyclopentyl-2-hydroxy-2-thien-2-ylacetoxy]-1-azoniabicyclo[2.2.2]octane trifluoroacetate], which inhibition at 0.1 µM is on record?
A: Its inhibition at 0.1 µM is 87.1%.

Q: What about the inhibition at 0.01 µM of the same compound?
A: Its inhibition at 0.01 µM is 57.6%.

Q: O=C(O[C@H]1C[N+]2(CCCOc3ccccc3)CCC1CC2)[C@@](O)(c1cccs1)C1CCCC1 [Example 53, (3R)-3-[(2R)-2-cyclopentyl-2-hydroxy-2-thien-2-ylacetoxy]-1-(3-phenoxypropyl)-1-azoniabicyclo[2.2.2]octane bromide] was tested. Which inhibition at 0.1 µM did it give?
A: Its inhibition at 0.1 µM is 81.5%.

Q: What about the inhibition at 0.01 µM of the same compound?
A: Its inhibition at 0.01 µM is 58%.

Q: Which inhibition at 0.1 µM does the source give for O=C(O[C@H]1C[N+]2(CCCc3cccs3)CCC1CC2)[C@@](O)(c1cccs1)C1CCCC1 [Example 54, (3R)-3-[(2R)-2-Cyclopentyl-2-hydroxy-2-thien-2-ylacetoxy]-1-(3-thien-2-ylpropyl)-1-azoniabicyclo[2.2.2]octane trifluoroacetate] here?
A: Its inhibition at 0.1 µM is 72.5%.

Q: And the inhibition at 0.01 µM?
A: The inhibition at 0.01 µM was 44.1%.

Q: How did the inhibition at 0.1 µM turn out when O=C(O[C@H]1C[N+]2(CCc3ccccc3)CCC1CC2)[C@@](O)(c1cccs1)C1CCCC1 [Example 56, (3R)-3-[(2R)-2-Cyclopentyl-2-hydroxy-2-thien-2-ylacetoxy]-1-phenethyl-1-azoniabicyclo[2.2.2]octane trifluoroacetate] was run?
A: The inhibition at 0.1 µM was 77.3%.

Q: What about the inhibition at 0.01 µM of the same compound?
A: Its inhibition at 0.01 µM is 53.8%.

Q: With O=C(O[C@H]1C[N+]2(CCCc3ccccc3)CCC1CC2)[C@@](O)(c1cccs1)C1CCCC1 [Example 57, (3R)-3-[(2R)-2-Cyclopentyl-2-hydroxy-2-thien-2-ylacetoxy]-1-(3-phenylpropyl)-1-azoniabicyclo[2.2.2]octane trifluoroacetate] as the compound, how does the inhibition at 0.1 µM read?
A: The inhibition at 0.1 µM was 77.4%.

Q: And the inhibition at 0.01 µM?
A: Its inhibition at 0.01 µM is 47.1%.

Q: Which inhibition at 0.1 µM does the source give for O=C(O[C@H]1C[N+]2(CCCc3cccs3)CCC1CC2)[C@@](O)(c1ccco1)C1CCCC1 [Example 61, (3R)-3-[(2S)-2-Cyclopentyl-2-fur-2-yl-2-hydroxyacetoxy]-1-(3-thien-2-ylpropyl)-1-azoniabicyclo[2.2.2]octane trifluoroacetate] here?
A: The inhibition at 0.1 µM was 75.1%.

Q: And the inhibition at 0.01 µM?
A: Its inhibition at 0.01 µM is 39.9%.

Q: How did the inhibition at 0.1 µM turn out when O=C(O[C@H]1C[N+]2(CCCOc3ccccc3)CCC1CC2)[C@](O)(c1ccco1)C1CCCC1 [Example 64, (3R)-3-[(2R)-2-Cyclopentyl-2-fur-2-yl-2-hydroxyacetoxy]-1-(3-phenoxypropyl)-1-azoniabicyclo[2.2.2]octane trifluoroacetate] was run?
A: Its inhibition at 0.1 µM is 78.6%.

Q: And the inhibition at 0.01 µM?
A: The inhibition at 0.01 µM was 64.5%.

Q: How did the “% INHIBITION concentration: 1.00E−08 M” value (0.01 µM) turn out when O=C(O[C@H]1C[N+]2(CCCc3cccs3)CCC1CC2)[C@](O)(c1ccco1)C1CCCC1.O=C([O-])C(F)(F)F [Example 65, (3R)-3-[(2R)-2-Cyclopentyl-2-fur-2-yl-2-hygroxyacetoxy]-1-(3-thien-2-ylpropyl)-1-azoniabicyclo[2.2.2]octane trifluoroacetate] was run?
A: Its value is 66.0%.

Q: What about the “% INHIBITION concentration: 1.00E−07 M” value (0.1 µM) of the same compound?
A: Its value is 79.8%.

Q: What does the source list for O=C(O[C@H]1C[N+]2(CCCc3ccccc3)CCC1CC2)[C@](O)(c1ccco1)C1CCCC1 [Example 67, (3R)-3-[(2R)-2-Cyclopentyl-2-fur-2-yl-2-hydroxyacetoxy]-1-(3-phenylpropyl)-1-azoniabicyclo[2.2.2]octane trifluoroacetate]?
A: inhibition at 0.1 µM: 75.1%; inhibition at 0.01 µM: 52.5%

Q: O=C(O[C@H]1C[N+]2(CCCc3cccs3)CCC1CC2)[C@](O)(c1ccccc1)C1CCCCC1 [Example 69, (3R)-3-[(2R)-2-Cyclohexyl-2-hydroxy-2-phenylacetoxy]-1-(3-thien-2-ylpropyl)-1-azoniabicyclo[2.2.2]octane trifluoroacetate] was tested. Which inhibition at 0.1 µM did it give?
A: Its inhibition at 0.1 µM is 70.8%.

Q: And the inhibition at 0.01 µM?
A: Its inhibition at 0.01 µM is 43.9%.
